This note sets out measurements from publication PMC10619693, “Structural identification of catalytic His158 of PtMAC2p from Pseudozyma tsukubaensis, an acyltransferase involved in mannosylerythritol lipids formation” (Frontiers in Bioengineering and Biotechnology, 2023).

In this assay the target is T1, PtMAC2p (Pseudozyma tsukubaensis, UniProt A0A2Z6ERP5).
T1 construct: gene PtMAC2
The assay is described as follows: DTNB (Ellman) assay of CoA release, absorbance at […] nm. It counts as biochemical. Particulars: 0.1 mM lauroyl-CoA; co-substrate 1 mM mono-acylated MEL-D; 1 mM DTNB; 50 mM sodium phosphate pH 7.2, 25 °C. A general note: DTNB colorimetry detects thiols as they appear.

T1 sequence (A0A2Z6ERP5 1-549): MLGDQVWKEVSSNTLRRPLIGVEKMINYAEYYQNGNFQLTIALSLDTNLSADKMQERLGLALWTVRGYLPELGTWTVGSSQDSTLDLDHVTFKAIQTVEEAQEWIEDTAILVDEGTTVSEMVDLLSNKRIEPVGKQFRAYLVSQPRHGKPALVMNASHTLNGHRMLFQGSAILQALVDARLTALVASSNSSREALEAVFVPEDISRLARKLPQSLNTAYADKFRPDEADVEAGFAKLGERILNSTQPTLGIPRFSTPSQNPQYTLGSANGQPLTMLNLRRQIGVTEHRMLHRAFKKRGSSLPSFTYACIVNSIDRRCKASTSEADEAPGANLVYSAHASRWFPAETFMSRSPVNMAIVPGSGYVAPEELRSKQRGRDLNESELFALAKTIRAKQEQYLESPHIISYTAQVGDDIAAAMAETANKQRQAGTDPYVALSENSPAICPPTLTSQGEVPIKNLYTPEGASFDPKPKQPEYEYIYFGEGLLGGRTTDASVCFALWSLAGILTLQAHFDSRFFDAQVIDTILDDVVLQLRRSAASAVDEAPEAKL

Consider `CCCCCCCCCCCC(=O)SCCNC(=O)CCNC(=O)[C@H](O)C(C)(C)COP(=O)(O)OP(=O)(O)OC[C@H]1O[C@@H](n2cnc3c(N)ncnc32)[C@H](O)[C@@H]1OP(=O)(O)O` [lauroyl-CoA], for which the “DTNB (Ellman) assay of CoA release, absorbance at 412 nm” value is on record as “Purified PtMAC2p catalyzes the transfer of a fatty acid of lauroyl-CoA (C12)”.
